For this test, the target named is T1, MAP3K9 (MLK1) (Homo sapiens, UniProt P80192).
T1 construct: purchased Thermo Fisher Scientific (Life Technologies) SelectScreen
Briefly: SelectScreen Z'LYTE. The format is biochemical. The method in brief:
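Percent values come from Thermo SelectScreen profiling of NU5455, combining activity and binding assays. CSF1R was run in Z'LYTE format at Km app ATP, and CAMK1 in Adapta format with ATP listed at 10.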

T1 sequence (P80192 whole entry): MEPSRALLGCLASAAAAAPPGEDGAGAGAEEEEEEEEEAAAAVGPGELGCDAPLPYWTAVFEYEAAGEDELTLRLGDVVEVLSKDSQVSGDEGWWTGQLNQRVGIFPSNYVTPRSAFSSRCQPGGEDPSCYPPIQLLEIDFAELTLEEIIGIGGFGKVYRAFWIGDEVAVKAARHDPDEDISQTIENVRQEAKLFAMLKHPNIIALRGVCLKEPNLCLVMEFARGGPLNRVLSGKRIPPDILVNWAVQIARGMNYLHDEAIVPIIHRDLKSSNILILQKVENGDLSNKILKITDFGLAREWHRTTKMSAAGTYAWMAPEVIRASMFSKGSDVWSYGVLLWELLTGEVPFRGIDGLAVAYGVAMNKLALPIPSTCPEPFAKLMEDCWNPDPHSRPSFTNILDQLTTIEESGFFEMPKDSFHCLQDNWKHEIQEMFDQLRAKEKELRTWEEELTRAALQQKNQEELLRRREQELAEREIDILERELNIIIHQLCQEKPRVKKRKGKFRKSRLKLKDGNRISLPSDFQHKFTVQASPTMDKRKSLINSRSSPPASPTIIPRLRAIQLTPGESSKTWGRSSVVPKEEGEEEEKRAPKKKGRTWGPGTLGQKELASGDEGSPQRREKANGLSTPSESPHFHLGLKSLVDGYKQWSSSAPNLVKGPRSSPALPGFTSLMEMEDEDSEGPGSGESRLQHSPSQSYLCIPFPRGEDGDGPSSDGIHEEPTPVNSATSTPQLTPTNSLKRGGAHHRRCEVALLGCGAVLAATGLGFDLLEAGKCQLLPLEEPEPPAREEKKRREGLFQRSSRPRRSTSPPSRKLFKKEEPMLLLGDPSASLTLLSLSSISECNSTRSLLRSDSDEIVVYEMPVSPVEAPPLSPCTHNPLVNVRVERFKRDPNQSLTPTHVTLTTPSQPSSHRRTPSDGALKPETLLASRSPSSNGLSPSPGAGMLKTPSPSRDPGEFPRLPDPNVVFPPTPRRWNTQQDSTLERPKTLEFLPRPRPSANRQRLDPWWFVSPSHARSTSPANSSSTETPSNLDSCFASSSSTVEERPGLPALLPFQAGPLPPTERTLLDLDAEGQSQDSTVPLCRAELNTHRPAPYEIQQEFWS

Turning to `CN(C(=O)CN1CCOCC1)c1ccc2sc3c(-c4cccc5c(=O)cc(N6CC7CCC(C6)O7)oc45)cccc3c2c1` [NU5455], the inhibition at 1 µM is -0.5%.

As usually defined, the inhibition is the change of the read-out against control, counted positive when it falls.

Values taken from PMC6934184, “Selective DNA-PKcs inhibition extends the therapeutic index of localized radiotherapy and chemotherapy” (The Journal of Clinical Investigation, 2019).
